Reference: patent US10870630B2, “Substituted bicyclic heteroaryl allosteric modulators of nicotinic acetylcholine receptors” (Merck Sharp & Dohme Corp., priority 2016, dated 2020)
Read-outs that look alike come from different tables or passages of the source.

Target: human α7 nicotinic acetylcholine receptor (α7 nAChR) (Homo sapiens, UniProt P36544)
Experiment: Automated patch-clamp electrophysiology functional assay (Assay A)
Assay type: cell-based
Conditions: HEK cell line stably expressing human RIC-3 and human α7, IonFlux HT whole-cell population patch, 40 μM acetylcholine
Description: The α7 nAChR positive allosteric modulator (PAM) activity of the present compounds may be tested using assays known in the art. The α7 nAChR PAMs described herein have activities in an automated patch-clamp electrophysiology functional assay as described in the examples. The assay was performed using the IonFlux HT in a whole-cell, population patch configuration. See Golden et al. Assay Drug Dev. Technol. (2011) 9:608-619. The compounds were assessed for their ability to modulate the function of the human […] nAChR stably expressed in a HEK cell line both in the presence, and in the absence of the natural 07 agonist acetylcholine. By performing a series of such measurements at different concentrations, the effective concentration of the α7 nAChR PAMs (EC50) was determined. See Spencer et al. Assay Drug Dev. Technol. (2012) 10:313-324.
Automated patch-clamp electrophysiology was performed using the IonFlux HT (Fluxion Biosciences Inc., San Francisco, Calif.) in the whole-cell, population patch configuration. Test compounds were assessed for their ability to modulate the function of the α7 nicotinic acetylcholine receptor both in the presence, and in the absence of the natural α7 agonist acetylcholine. A HEK cell line stably expressing both human RIC-3 and human α7 (PrecisION hnAChR α7/RIC-3, Eurofins Pharma, St. Charles, Mo.) was cultured in 175 cm^2 triple-layer tissue culture flasks to no more than 90% confluency in DMEM/F-12 growth media supplemented with 10% heat-inactivated fetal bovine serum, 1% non-essential amino acids, 0.625 μg/mL Puromycin, and 400 μg/mL Geneticin. Immediately prior to assay, cells were detached by first aspirating growth media, rinsing with Dulbecco's phosphate buffered saline, and then adding 10 mL of Accutase (Innovative Cell Technologies, San Diego, Calif.) to the flask and then incubating at 37° C. for 5 minutes. Detached cells were then recovered by the addition of 40 mL of CHO-serum-free media supplemented with 25 mM HEPES, and rocked gently in a 50 mL conical tube for 20 minutes prior to patch-clamp assay. After recovery, cells were pelleted by centrifugation at 1,000 RPM for 1 minute in a compact bench top centrifuge; recovery media was aspirated and cells were resuspended in external recording solution (150 mM NaCl, 5 mM KCl, 2 mM CaCl2, 1 mM MgCl2, 10 mM HEPES, 12 mM dextrose) to a density of 5.0×10^6 cells/mL. The cell suspension was added to the cell inlet wells on an IonFlux HT population patch plate which had previously been rinsed and primed with deionized H2O. Test compounds were serially diluted in DMSO and then resuspended to the final test concentration in external recording solution, with, or without 40 μM acetylcholine added to the external recording solution; test compounds were then transferred to the IonFlux HT population patch plate. Internal recording solution (110 mM TrisPO4, 28 mM TrisBase, 0.1 mM CaCl2, 2 mM MgCl2, 11 mM EGTA, 4 mM MgATP) was added to the internal recording solution inlet wells on the IonFlux HT patch plate previously loaded with cells and test compounds, and the plate loaded into the IonFlux HT instrument. A protocol was executed on the IonFlux HT to trap the cells, break into the cells, and establish the whole-cell recording configuration; cells were voltage-clamped at a holding potential of −60 mV for the duration of the experiment, all experiments were conducted at room temperature, and the IonFlux HT injection pressure was 8 psi for solution applications. Upon establishing the whole-cell configuration, external recording solution was perfused into the recording chambers for 120 seconds and then 40 μM acetylcholine was applied for 1 second and immediately washed off with external recording solution for 60 seconds. The 40 μM acetylcholine-evoked α7 current served as the current response to which subsequent test compound effects, in the presence, or in the absence of 40 μM acetylcholine would be quantified relative to. […]

Chain of human α7 nicotinic acetylcholine receptor (α7 nAChR) (P36544 23-502): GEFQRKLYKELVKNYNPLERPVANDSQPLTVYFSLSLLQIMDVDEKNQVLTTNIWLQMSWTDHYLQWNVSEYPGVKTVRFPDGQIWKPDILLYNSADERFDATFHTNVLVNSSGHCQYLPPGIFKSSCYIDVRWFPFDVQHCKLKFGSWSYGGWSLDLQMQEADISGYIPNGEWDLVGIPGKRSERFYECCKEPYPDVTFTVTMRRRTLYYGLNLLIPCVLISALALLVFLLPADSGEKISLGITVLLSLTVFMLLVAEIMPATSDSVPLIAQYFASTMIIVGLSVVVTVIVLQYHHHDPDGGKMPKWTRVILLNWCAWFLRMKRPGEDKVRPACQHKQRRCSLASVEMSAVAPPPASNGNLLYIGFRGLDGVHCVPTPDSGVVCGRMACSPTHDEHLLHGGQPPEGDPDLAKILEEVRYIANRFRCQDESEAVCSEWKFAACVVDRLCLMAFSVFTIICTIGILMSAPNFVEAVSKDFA

Row | SMILES | EC50 (read-out: α7 nAChR EC50) | EC50 (read-out: α7 nAChR Potency)
1 | CC1(C)[C@H](c2ccc(S(N)(=O)=O)cc2)[C@H]1c1nc2ccc(F)cc2s1 [Example B9, 4-[(1R,3R)-3-(6-Fluoro-1,3-benzothiazol-2-yl)-2,2-dimethyl-cyclopropyl]benzenesulfonamide] | 170 nM | 100 to 500 nM
2 | CC1(C)[C@@H](c2ccc(S(N)(=O)=O)cc2)[C@@H]1c1nc2ccccc2s1 [Example 9] | 350 nM | 100 to 500 nM
3 | CC1(C)[C@H](c2ccc(S(N)(=O)=O)cc2)[C@H]1c1cn2ncccc2n1 [Example 8, 4-((1R,3R)-3-(Imidazo[1,2-b]pyridazin-2-yl)-2,2-dimethylcyclopropyl)benzenesulfonamide] | 3800 nM | 500 to 5000 nM
4 | CC1(C)[C@@H](c2ccc(S(N)(=O)=O)cc2)[C@@H]1c1nc2ccc(F)cc2s1 [Example 10, 4-((1S,3S)-3-(6-Fluorobenzo[d]thiazol-2-yl)-2,2-dimethylcyclopropyl)benzenesulfonamide] | 450 nM | 100 to 500 nM
5 | CN1CCOc2cc(C3CC3c3ccc(S(N)(=O)=O)cc3)cnc21 (racemic) [Example E13, 4-[2-(4-Methyl-2,3-dihydropyrido[3,2-b][1,4]oxazin-7-yl)cyclopropyl]benzenesulfonamide] | 880 nM | 500 to 5000 nM
6 | CC1(C)[C@@H](c2ccc(S(N)(=O)=O)cc2)[C@@H]1c1nc2ccccc2o1 [Example A4, 4-[(1S,3S)-3-(1,3-Benzoxazol-2-yl)-2,2-dimethyl-cyclopropyl]benzenesulfonamide] | 280 nM | 100 to 500 nM
7 | CC1(C)[C@H](c2ccc(S(N)(=O)=O)cc2)[C@H]1c1nc2ccccc2s1 [Example B3, 4-[(1R,3R)-3-(1,3-Benzothiazol-2-yl)-2,2-dimethyl-cyclopropyl]benzenesulfonamide] | 3400 nM | 500 to 5000 nM
8 | CC1(C)[C@@H](c2ccc(S(N)(=O)=O)cc2)[C@@H]1c1nc2ccc(Cl)cc2o1 [Example A5, 4-[(1S,3S)-3-(6-Chloro-1,3-benzoxazol-2-yl)-2,2-dimethyl-cyclopropyl]benzenesulfonamide] | 1200 nM | 500 to 5000 nM
9 | CC1(C)[C@H](c2ccc(S(N)(=O)=O)cc2)[C@H]1c1nc2ccc(F)cc2o1 [Example B2, 4-[(1R,3R)-3-(6-Fluoro-1,3-benzoxazol-2-yl)-2,2-dimethyl-cyclopropyl]benzenesulfonamide] | 300 nM | 100 to 500 nM
10 | NS(=O)(=O)c1ccc([C@@H]2C[C@H]2c2nc3ccc(F)cc3o2)cc1 [Example A2, 4-[(1R,2R)-2-(6-Fluoro-1,3-benzoxazol-2-yl)cyclopropyl]benzenesulfonamide] | 60 nM | ≤ 100 nM
11 | NS(=O)(=O)c1ccc([C@H]2[C@H](c3nc4ccccc4[nH]3)C2(F)F)cc1 [Example A9, 4-[(1R,3R)-3-(1H-Benzimidazol-2-yl)-2,2-difluorocyclopropyl]benzenesulfonamide] |  | 500 to 5000 nM
12 | CC1(C)[C@H](c2ccc(S(N)(=O)=O)cc2)[C@H]1c1ncc2c(n1)CCCC2 [Example 12, 4-[(R,3R)-2,2-Dimethyl-3-(5,6,7,8-tetrahydroquinazolin-2-yl)cyclopropyl]benzenesulfonamide] | 2500 nM | 500 to 5000 nM
13 | NS(=O)(=O)c1ccc([C@H]2C[C@@H]2c2nc3ccc(F)cc3o2)cc1 [Example B7, 4-[(1 S,2S)-2-(6-Fluoro-1,3-benzoxazol-2-yl)cyclopropyl]benzenesulfonamide] | 4200 nM | 500 to 5000 nM
14 | NS(=O)(=O)c1ccc(C2CC2c2ccc3cc(C(F)(F)F)nnc3c2)cc1 (racemic) [Example E5, 4-[2-[3-(Trifluoromethyl)cinnolin-7-yl]cyclopropyl]benzenesulfonamide] |  | 500 to 5000 nM
15 | COc1ccc2oc([C@@H]3[C@@H](c4ccc(S(N)(=O)=O)cc4)C3(C)C)nc2c1 [Example B10, 4-[(1R,3R)-3-(5-Methoxy-1,3-benzoxazol-2-yl)-2,2-dimethyl-cyclopropyl]benzenesulfonamide] | 660 nM | 500 to 5000 nM
16 | NS(=O)(=O)c1ccc(C2CC2c2cc3ccncc3s2)cc1 (racemic) [Example E7, 4-(2-Thieno[2,3-c]pyridin-2-ylcyclopropyl)benzenesulfonamide] |  | 500 to 5000 nM
17 | CC1(C)[C@H](c2ccc(S(N)(=O)=O)cc2)[C@H]1c1nc2ccc(Cl)cc2o1 [Example B5, 4-[(1R,3R)-3-(6-Chloro-1,3-benzoxazol-2-yl)-2,2-dimethyl-cyclopropyl]benzenesulfonamide] |  | 100 to 500 nM
18 | NS(=O)(=O)c1ccc([C@@H]2[C@@H](c3nc4ccccc4o3)C2(F)F)cc1 [Example B11, 4-[(1S,3S)-3-(1,3-Benzoxazol-2-yl)-2,2-difluoro-cyclopropyl]benzenesulfonamide] | 430 nM | 100 to 500 nM
19 | NS(=O)(=O)c1ccc(C2CC2c2cc3n(n2)CCCC3)cc1 (racemic) [Example E10, 4-[2-(4,5,6,7-Tetrahydropyrazolo[1,5-a]pyridin-2-yl)cyclopropyl]benzenesulfonamide] |  | 5000 to 50000 nM
20 | CC1(C)[C@@H](c2ccc(S(N)(=O)=O)cc2)[C@@H]1c1ncc2ccccc2n1 [Example C1, 4-[(1S,3S)-2,2-Dimethyl-3-quinazolin-2-yl-cyclopropyl]benzenesulfonamide] | 1400 nM | 500 to 5000 nM
21 | CC1(C)[C@H](c2ccc(S(N)(=O)=O)cc2)[C@H]1c1nc2c(F)cc(F)cc2o1 [Example B1, 4-[(1R,3R)-3-(4,6-Difluoro-1,3-benzoxazol-2-yl)-2,2-dimethyl-cyclopropyl]benzenesulfonamide] |  | 100 to 500 nM
22 | CC1(C)[C@H](c2ccc(S(N)(=O)=O)cc2)[C@H]1c1nc2cccnc2o1 [Example 6, 4-[(1R,3R)-2,2-Dimethyl-3-([1,3]oxazolo[5,4-b]pyridin-2-yl)cyclopropyl]benzenesulfonamide] | 3400 nM | 500 to 5000 nM
23 | CC1(C)[C@H](c2ccc(S(N)(=O)=O)cc2)[C@H]1c1nc2c(o1)CCC2 [Example 11, 4-[(1R,3R)-3-(5,6-Dihydro-4H-cyclopenta[d][1,3]oxazol-2-yl)-2,2-dimethylcyclopropyl]benzenesulfonamide] | 2000 nM | 500 to 5000 nM
24 | CC1(C)[C@@H](c2ccc(S(N)(=O)=O)cc2)[C@@H]1c1nc2c(F)cc(F)cc2s1 [Example A3, 4-[(1S,3S)-3-(4,6-Difluoro-1,3-benzothiazol-2-yl)-2,2-dimethyl-cyclopropyl]benzenesulfonamide] | 960 nM | 500 to 5000 nM
25 | NS(=O)(=O)c1ccc([C@@H]2[C@@H](c3nc4ccccc4s3)C2(F)F)cc1 [Example B12, 4-[(1S,3R)-3-(1,3-Benzothiazol-2-yl)-2,2-difluoro-cyclopropyl]benzenesulfonamide] |  | 100 to 500 nM
26 | CC1(C)OC([C@H]2[C@H](c3ccc(S(N)(=O)=O)cc3)C2(F)F)=Nc2ccccc21 [Example 13, 4-[(1R,3R)-3-(4,4-Dimethyl-4H-3,1-benzoxazin-2-yl)-2,2-difluorocyclopropyl]benzenesulfonamide] | 1800 nM | 500 to 5000 nM
27 | CC1(C)OC([C@@H]2[C@@H](c3ccc(S(N)(=O)=O)cc3)C2(F)F)=Nc2ccccc21 [Example D5, 4-[(1S,3S)-3-(4,4-Dimethyl-4H-3,1-benzoxazin-2-yl)-2,2-difluorocyclopropyl]benzenesulfonamide] | 1100 nM | 500 to 5000 nM
